In PubChem BioAssay (NCI):
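Cultured in 96-well plates, cells were exposed to test compound for 48 hours across five concentrations. At the GI50, growth is halved. Definition used: TGI = concentration required for complete inhibition of growth.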

Columns and labels:
Assay in all cases: NCI anticancer screen, dose series, 48 h
786-0 renal = system: 786-0 renal
A498 renal = system: A498 renal
A549 NSCLC = system: A549 NSCLC
ACHN renal = system: ACHN renal
CAKI-1 renal = system: CAKI-1 renal
CCRF-CEM leukemia = system: CCRF-CEM leukemia
COLO 205 colon = system: COLO 205 colon
DLD-1 colon = system: DLD-1 colon
DMS 114 small cell lung = system: DMS 114 small cell lung
DMS 273 small cell lung = system: DMS 273 small cell lung
HCC-2998 colon = system: HCC-2998 colon
HCT-116 colon = system: HCT-116 colon
HCT-15 colon = system: HCT-15 colon
HL-60(TB) leukemia = system: HL-60(TB) leukemia
HOP-18 NSCLC = system: HOP-18 NSCLC
HOP-92 NSCLC = system: HOP-92 NSCLC
HT29 colon = system: HT29 colon
IGROV1 ovarian = system: IGROV1 ovarian
K-562 leukemia = system: K-562 leukemia
KM12 colon = system: KM12 colon
KM20L2 colon = system: KM20L2 colon
LOX IMVI melanoma = system: LOX IMVI melanoma
LXFL 529 NSCLC = system: LXFL 529 NSCLC
M14 melanoma = system: M14 melanoma
MALME-3M melanoma = system: MALME-3M melanoma
MOLT-4 leukemia = system: MOLT-4 leukemia
NCI-H226 lung = system: NCI-H226 lung
NCI-H23 lung = system: NCI-H23 lung
NCI-H460 lung = system: NCI-H460 lung
NCI-H522 lung = system: NCI-H522 lung
OVCAR-3 ovarian = system: OVCAR-3 ovarian
OVCAR-4 ovarian = system: OVCAR-4 ovarian
OVCAR-8 ovarian = system: OVCAR-8 ovarian
RPMI-8226 leukemia = system: RPMI-8226 leukemia
RXF 393 renal = system: RXF 393 renal
SF-268 CNS = system: SF-268 CNS
SF-295 CNS = system: SF-295 CNS
SF-539 CNS = system: SF-539 CNS
SK-MEL-2 melanoma = system: SK-MEL-2 melanoma
SK-MEL-28 melanoma = system: SK-MEL-28 melanoma
SK-MEL-5 melanoma = system: SK-MEL-5 melanoma
SK-OV-3 ovarian = system: SK-OV-3 ovarian
SN12C renal = system: SN12C renal
SNB-19 CNS = system: SNB-19 CNS
SNB-75 CNS = system: SNB-75 CNS
SW-620 colon = system: SW-620 colon
TK-10 renal = system: TK-10 renal
U251 CNS = system: U251 CNS
UACC-257 melanoma = system: UACC-257 melanoma
UACC-62 melanoma = system: UACC-62 melanoma
UO-31 renal = system: UO-31 renal

## C1COCCOCCOCCOCCO1.CC(=O)[CH-]C(C)=O.CC(=O)[CH-]C(C)=O.CC(=O)[CH-]C(C)=O.[V]
786-0 renal
  GI50: 2.96 µM
  TGI: 12.9 µM
A498 renal
  GI50: 25 µM
  TGI: 66.3 µM
A549 NSCLC
  GI50: 22.7 µM
  TGI: > 100 µM
ACHN renal
  GI50: 12 µM
  TGI: 44.1 µM
CAKI-1 renal
  GI50: 15 µM
  TGI: 33.2 µM
CCRF-CEM leukemia
  GI50: 19.1 µM
  TGI: 41.3 µM
COLO 205 colon
  GI50: 18.7 µM
  TGI: 35.1 µM
DLD-1 colon
  GI50: 28 µM
  TGI: > 100 µM
DMS 114 small cell lung
  GI50: 28.3 µM
  TGI: 82.1 µM
DMS 273 small cell lung
  GI50: 15.7 µM
  TGI: 34.8 µM
HCC-2998 colon
  GI50: 19.6 µM
  TGI: 40.1 µM
HCT-116 colon
  GI50: 13.4 µM
  TGI: 27.3 µM
HCT-15 colon
  GI50: 20.7 µM
  TGI: 57.9 µM
HL-60(TB) leukemia
  GI50: 20.1 µM
  TGI: 42.2 µM
HOP-18 NSCLC
  GI50: 28.2 µM
  TGI: 77.9 µM
HOP-92 NSCLC
  GI50: 11.2 µM
  TGI: 44.7 µM
HT29 colon
  GI50: 19.1 µM
  TGI: 37.4 µM
IGROV1 ovarian
  GI50: 4.79 µM
  TGI: 22.5 µM
K-562 leukemia
  GI50: 29.1 µM
  TGI: 71.4 µM
KM12 colon
  GI50: 16.8 µM
  TGI: 37 µM
KM20L2 colon
  GI50: 27.4 µM
  TGI: 61.7 µM
LOX IMVI melanoma
  GI50: 15.1 µM
  TGI: 29.6 µM
LXFL 529 NSCLC
  GI50: 20.7 µM
  TGI: 41.2 µM
M14 melanoma
  GI50: 5.59 µM
  TGI: 21 µM
MALME-3M melanoma
  GI50: 2.99 µM
  TGI: 16.4 µM
MOLT-4 leukemia
  GI50: 20.6 µM
  TGI: 41.4 µM
NCI-H226 lung
  GI50: 37.1 µM
  TGI: > 100 µM
NCI-H23 lung
  GI50: 15.6 µM
  TGI: 31.6 µM
NCI-H460 lung
  GI50: 22.7 µM
  TGI: 99.4 µM
NCI-H522 lung
  GI50: 16.9 µM
  TGI: 39 µM
OVCAR-3 ovarian
  GI50: 13.7 µM
  TGI: 32.3 µM
OVCAR-4 ovarian
  GI50: 0.56 µM
  TGI: 3.81 µM
OVCAR-8 ovarian
  GI50: 30.6 µM
  TGI: 76.3 µM
RPMI-8226 leukemia
  GI50: 20.5 µM
  TGI: 50 µM
RXF 393 renal
  GI50: 1.63 µM
  TGI: 3.26 µM
SF-268 CNS
  GI50: 20.6 µM
  TGI: 65.8 µM
SF-295 CNS
  GI50: 7.9 µM
  TGI: 22 µM
SF-539 CNS
  GI50: 3.75 µM
  TGI: 13.8 µM
SK-MEL-2 melanoma
  GI50: 10.8 µM
  TGI: 26 µM
SK-MEL-28 melanoma
  TGI: 23.9 µM
SK-MEL-5 melanoma
  GI50: 2.47 µM
  TGI: 12.8 µM
SK-OV-3 ovarian
  GI50: 17.6 µM
  TGI: 33 µM
SN12C renal
  GI50: 21.3 µM
  TGI: 62.3 µM
SNB-19 CNS
  GI50: 15.3 µM
  TGI: 32.6 µM
SNB-75 CNS
  GI50: 10.6 µM
  TGI: 23 µM
SW-620 colon
  GI50: 22.9 µM
  TGI: > 100 µM
TK-10 renal
  GI50: 14.1 µM
  TGI: 52 µM
U251 CNS
  GI50: 20.6 µM
  TGI: 52.8 µM
UACC-257 melanoma
  GI50: 12.1 µM
  TGI: 25.3 µM
UACC-62 melanoma
  GI50: 4.25 µM
  TGI: 17.4 µM
UO-31 renal
  GI50: 32.5 µM
  TGI: 61.4 µM
